Literature values, collected in patent US20080075658A1, “Method of Radiolabeling Formulations for Gamma Scintigraphy Assessment” (priority 2006, published 2008).

Details: radioactive decay of the radionuclide

Row | Compound | half life | half-life [h]
1 | [Tc] [Example 99mTc, technetium] | 6.01 h | –
2 | [Cl-].[Cl-].[Cl-].[In+3] [InCl2, indium chloride] | InCl2 half life is 67.2 hrs | 67.2
3 | [O-2].[O-2].[O-2].[Sm+3].[Sm+3] [Sm2O3, samarium oxide] | 46.27 h | –
